Measured values taken from patent US20230389548A1, “MIXTURES OF PYRIMIDINES AS HERBICIDAL COMPOSITIONS” (SYNGENTA CROP PROTECTION AG, priority 2020, published 2023).

Tests used:
Assay in all cases: Post-emergence glasshouse spray test, visual percentage phytotoxicity after 13 days
Format in all cases: in vivo
[1] = tested on: Abutilon threophrasti (ABUTH); conditions: for ABUTH percentage phytotoxicity: B1
How it was run: (§1)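 8-day seedlings, pots, glasshouse 24/19 °C. Spray 500 l/Ha; 50 g/l IF50 formulation diluted in 0.2% Genapol XO80 to final dose. Grown 24/18 °C, 15 h light, 50% RH, watered twice daily; visual % phytotoxicity vs untreated at 13 d.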

[2] = tested on: Alopecurus myosuroides (ALOMY); conditions: for ALOMY percentage phytotoxicity: B1
How it was run: as §1

[3] = tested on: Amaranthus retroflexus (AMARE); conditions: for AMARE percentage phytotoxicity: B1
How it was run: as §1

[4] = tested on: Chenopodium album (CHEAL); conditions: for CHEAL percentage phytotoxicity: B1
How it was run: as §1

[5] = tested on: Digitaria sanguinalis (DIGSA); conditions: for DIGSA percentage phytotoxicity: B1
How it was run: as §1

[6] = tested on: Echinochloa crus-galli (ECHCG)
How it was run: as §1

[7] = tested on: Ipomoea hederacea (IPOHE); conditions: for IPOHE percentage phytotoxicity: B1
How it was run: as §1

[8] = tested on: Lolium perenne (LOLPE); conditions: for LOLPE percentage phytotoxicity: B1
How it was run: as §1

[9] = tested on: Setaria faberi (SETFA); conditions: for SETFA percentage phytotoxicity: B1
How it was run: as §1

[10] = tested on: Stellaria media (STEME); conditions: for STEME percentage phytotoxicity: B1
How it was run: as §1

FC(F)c1cc(-c2c(Cl)cccc2Oc2ncc(Cl)cn2)on1 [A-I]
ABUTH percentage phytotoxicity ([1]; 0.625 g/ha post-emergence): 15%
ABUTH percentage phytotoxicity ([1]; 1.25 g/ha post-emergence): 41%
ABUTH percentage phytotoxicity ([1]; 2.5 g/ha post-emergence): 49%
ABUTH percentage phytotoxicity ([1]; 5 g/ha post-emergence): 68%
ABUTH percentage phytotoxicity ([1]; 10 g/ha post-emergence): 68%
Observed phytotoxicity ABUTH ([1]; B2.1.7, 1.25 g/ha post-emergence): 8%
Observed phytotoxicity ABUTH ([1]; B2.1.7, 2.5 g/ha post-emergence): 25%
Observed phytotoxicity ABUTH ([1]; B2.4.6, 0.625 g/ha post-emergence): 15%
ALOMY percentage phytotoxicity ([2]; 0.625 g/ha post-emergence): 5%
ALOMY percentage phytotoxicity ([2]; 1.25 g/ha post-emergence): 11%
ALOMY percentage phytotoxicity ([2]; 2.5 g/ha post-emergence): 10%
ALOMY percentage phytotoxicity ([2]; 5 g/ha post-emergence): 43%
ALOMY percentage phytotoxicity ([2]; 10 g/ha post-emergence): 41%
Observed phytotoxicity ALOMY ([2]; B2.2.5, 5 g/ha post-emergence): 14%
Observed phytotoxicity ALOMY ([2]; B2.3.5, 1.25 g/ha post-emergence): 1%
Observed phytotoxicity ALOMY ([2]; B2.4.4, 10 g/ha post-emergence): 41%
AMARE percentage phytotoxicity ([3]; 0.625 g/ha post-emergence): 60%
AMARE percentage phytotoxicity ([3]; 1.25 g/ha post-emergence): 70%
AMARE percentage phytotoxicity ([3]; 2.5 g/ha post-emergence): 98%
AMARE percentage phytotoxicity ([3]; 5 g/ha post-emergence): 98%
AMARE percentage phytotoxicity ([3]; 10 g/ha post-emergence): 100%
Observed phytotoxicity AMARE ([3]; B2.1.5, 1.25 g/ha post-emergence): 55%
Observed phytotoxicity AMARE ([3]; B2.2.6, 0.625 g/ha post-emergence): 51%
Observed phytotoxicity AMARE ([3]; B2.2.6, 1.25 g/ha post-emergence): 76%
Observed phytotoxicity AMARE ([3]; B2.4.8, 1.25 g/ha post-emergence): 70%
CHEAL percentage phytotoxicity ([4]; 0.625 g/ha post-emergence): 48%
CHEAL percentage phytotoxicity ([4]; 1.25 g/ha post-emergence): 53%
CHEAL percentage phytotoxicity ([4]; 2.5 g/ha post-emergence): 79%
CHEAL percentage phytotoxicity ([4]; 5 g/ha post-emergence): 76%
CHEAL percentage phytotoxicity ([4]; 10 g/ha post-emergence): 78%
Observed phytotoxicity CHEAL ([4]; B2.1.6, 1.25 g/ha post-emergence): 45%
Observed phytotoxicity CHEAL ([4]; B2.4.7, 1.25 g/ha post-emergence): 53%
DIGSA percentage phytotoxicity ([5]; 0.625 g/ha post-emergence): 6%
DIGSA percentage phytotoxicity ([5]; 1.25 g/ha post-emergence): 25%
DIGSA percentage phytotoxicity ([5]; 2.5 g/ha post-emergence): 34%
DIGSA percentage phytotoxicity ([5]; 5 g/ha post-emergence): 63%
DIGSA percentage phytotoxicity ([5]; 10 g/ha post-emergence): 78%
Observed phytotoxicity DIGSA ([5]; B2.2.3, 5 g/ha post-emergence): 48%
Observed phytotoxicity DIGSA ([5]; B2.3.3, 0.625 g/ha post-emergence): 3%
Observed phytotoxicity DIGSA ([5]; B2.3.3, 1.25 g/ha post-emergence): 9%
Observed phytotoxicity DIGSA ([5]; B2.4.2, 2.5 g/ha post-emergence): 34%
Observed phytotoxicity DIGSA ([5]; B2.4.2, 5 g/ha post-emergence): 63%
Observed phytotoxicity DIGSA ([5]; B2.4.2, 10 g/ha post-emergence): 78%
Observed phytotoxicity DIGSA ([5]; B2.5.1, 2.5 g/ha post-emergence): 34%
Observed phytotoxicity DIGSA ([5]; B2.6.2, 0.625 g/ha post-emergence): 6%
Observed phytotoxicity DIGSA ([5]; B2.6.2, 2.5 g/ha post-emergence): 34%
Observed phytotoxicity DIGSA ([5]; B2.6.2, 10 g/ha post-emergence): 78%
Observed phytotoxicity ECHCG ([6]; B2.1.2, 0.625 g/ha post-emergence): 8%
Observed phytotoxicity ECHCG ([6]; B2.1.2, 5 g/ha post-emergence): 20%
Observed phytotoxicity ECHCG ([6]; B2.2.2, 0.625 g/ha post-emergence): 0%
Observed phytotoxicity ECHCG ([6]; B2.2.2, 1.25 g/ha post-emergence): 34%
Observed phytotoxicity ECHCG ([6]; B2.2.2, 5 g/ha post-emergence): 10%
Observed phytotoxicity ECHCG ([6]; B2.3.2, 0.625 g/ha post-emergence): 0%
Observed phytotoxicity ECHCG ([6]; B2.3.2, 1.25 g/ha post-emergence): 4%
Observed phytotoxicity ECHCG ([6]; B2.3.2, 5 g/ha post-emergence): 10%
IPOHE percentage phytotoxicity ([7]; 0.625 g/ha post-emergence): 32%
IPOHE percentage phytotoxicity ([7]; 1.25 g/ha post-emergence): 50%
IPOHE percentage phytotoxicity ([7]; 2.5 g/ha post-emergence): 80%
IPOHE percentage phytotoxicity ([7]; 5 g/ha post-emergence): 79%
IPOHE percentage phytotoxicity ([7]; 10 g/ha post-emergence): 60%
Observed phytotoxicity IPOHE ([7]; B2.3.6, 0.625 g/ha post-emergence): 24%
Observed phytotoxicity IPOHE ([7]; B2.4.5, 10 g/ha post-emergence): 60%
Observed phytotoxicity IPOHE ([7]; B2.6.4, 10 g/ha post-emergence): 60%
LOLPE percentage phytotoxicity ([8]; 0.625 g/ha post-emergence): 4%
LOLPE percentage phytotoxicity ([8]; 1.25 g/ha post-emergence): 5%
LOLPE percentage phytotoxicity ([8]; 2.5 g/ha post-emergence): 8%
LOLPE percentage phytotoxicity ([8]; 5 g/ha post-emergence): 43%
LOLPE percentage phytotoxicity ([8]; 10 g/ha post-emergence): 30%
Observed phytotoxicity LOLPE ([8]; B2.1.1, 0.625 g/ha post-emergence): 0%
Observed phytotoxicity LOLPE ([8]; B2.1.1, 1.25 g/ha post-emergence): 0%
Observed phytotoxicity LOLPE ([8]; B2.2.4, 1.25 g/ha post-emergence): 0%
Observed phytotoxicity LOLPE ([8]; B2.2.4, 2.5 g/ha post-emergence): 0%
Observed phytotoxicity LOLPE ([8]; B2.2.4, 5 g/ha post-emergence): 14%
Observed phytotoxicity LOLPE ([8]; B2.3.4, 1.25 g/ha post-emergence): 0%
Observed phytotoxicity LOLPE ([8]; B2.3.4, 2.5 g/ha post-emergence): 0%
Observed phytotoxicity LOLPE ([8]; B2.4.3, 10 g/ha post-emergence): 30%
Observed phytotoxicity LOLPE ([8]; B2.5.2, 5 g/ha post-emergence): 21%
Observed phytotoxicity LOLPE ([8]; B2.5.2, 10 g/ha post-emergence): 30%
Observed phytotoxicity LOLPE ([8]; B2.6.3, 10 g/ha post-emergence): 30%
SETFA percentage phytotoxicity ([9]; 0.625 g/ha post-emergence): 7%
SETFA percentage phytotoxicity ([9]; 1.25 g/ha post-emergence): 13%
SETFA percentage phytotoxicity ([9]; 2.5 g/ha post-emergence): 29%
SETFA percentage phytotoxicity ([9]; 5 g/ha post-emergence): 53%
SETFA percentage phytotoxicity ([9]; 10 g/ha post-emergence): 65%
Observed phytotoxicity SETFA ([9]; B2.1.3, 5 g/ha post-emergence): 40%
Observed phytotoxicity SETFA ([9]; B2.2.1, 1.25 g/ha post-emergence): 8%
Observed phytotoxicity SETFA ([9]; B2.2.1, 2.5 g/ha post-emergence): 14%
Observed phytotoxicity SETFA ([9]; B2.2.1, 5 g/ha post-emergence): 51%
Observed phytotoxicity SETFA ([9]; B2.3.1, 0.625 g/ha post-emergence): 3%
Observed phytotoxicity SETFA ([9]; B2.3.1, 1.25 g/ha post-emergence): 8%
Observed phytotoxicity SETFA ([9]; B2.3.1, 2.5 g/ha post-emergence): 14%
Observed phytotoxicity SETFA ([9]; B2.4.1, 2.5 g/ha post-emergence): 29%
Observed phytotoxicity SETFA ([9]; B2.6.1, 0.625 g/ha post-emergence): 7%
Observed phytotoxicity SETFA ([9]; B2.6.1, 2.5 g/ha post-emergence): 29%
STEME percentage phytotoxicity ([10]; 0.625 g/ha post-emergence): 44%
STEME percentage phytotoxicity ([10]; 1.25 g/ha post-emergence): 60%
STEME percentage phytotoxicity ([10]; 2.5 g/ha post-emergence): 88%
STEME percentage phytotoxicity ([10]; 5 g/ha post-emergence): 99%
STEME percentage phytotoxicity ([10]; 10 g/ha post-emergence): 98%
Observed phytotoxicity STEME ([10]; B2.1.4, 1.25 g/ha post-emergence): 40%
Observed phytotoxicity STEME ([10]; B2.3.7, 0.625 g/ha post-emergence): 29%
Observed phytotoxicity STEME ([10]; B2.6.5, 0.625 g/ha post-emergence): 44%
